18 compounds from US20230331720A1, “MEDIUM- OR MACRO-CYCLIC BENZYL-SUBSTITUTED HETEROCYCLE DERIVATIVES AND THEIR USES AS OREXIN-2 RECEPTOR AGONISTS” (Orexia Therapeutics Limited, priority 2020, published 2023) can be followed below.

The conditions of data set [1]: DMF.
The target in data set [2] is T1, human orexin type 2 receptor (hOX2R) (Homo sapiens, UniProt O43614).
T1 construct: expressed in transfected cells
T1 sequence (O43614 1-444): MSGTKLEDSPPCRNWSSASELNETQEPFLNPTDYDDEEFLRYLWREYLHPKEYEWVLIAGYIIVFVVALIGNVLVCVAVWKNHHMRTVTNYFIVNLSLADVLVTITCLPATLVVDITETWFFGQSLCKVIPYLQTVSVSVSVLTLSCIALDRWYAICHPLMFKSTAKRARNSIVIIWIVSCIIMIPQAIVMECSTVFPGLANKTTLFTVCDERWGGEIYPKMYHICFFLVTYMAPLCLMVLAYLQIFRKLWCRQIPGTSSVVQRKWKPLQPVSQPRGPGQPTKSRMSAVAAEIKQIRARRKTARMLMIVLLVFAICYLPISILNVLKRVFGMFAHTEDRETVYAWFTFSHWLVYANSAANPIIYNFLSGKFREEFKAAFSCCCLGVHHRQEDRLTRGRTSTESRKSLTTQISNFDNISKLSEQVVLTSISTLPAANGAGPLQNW
Nature of the data set: Orexin type 2 receptor agonist activity, intracellular Ca2+ (FLIPR TETRA). The note with it: CHO cells expressing hOX2R; Ca2+ fluorescence area; read-out: hOx2 pEC50 (converted). Type of data set: cell-based. On the procedure:
Stable cell line generation. Obtainment of cells stably expressing either human orexin type 2 or human orexin type 1 receptor; to obtain a stable cell line the Orexin receptor cDNA was inserted into pcDNA3.1(+) plasmid vector and clones identified by G418 drug resistance selection. […] A single clone for OX2R-CHO and OX1R-CHO were grown in bulk and frozen to generate a cell bank for routine screening.
Measurement of orexin type 2 receptor agonist activity. Chinese hamster ovary (CHO) cells expressing human orexin type 2 receptor (hOX2R) or human orexin type 1 receptor (hOX1R) were seeded in each well of 384 well black clear bottom plates (BD Flacon) at 10,000 cells per well and cultured for 24 hr in an Ham's F12 (Gibco) medium containing 10% fetal calf serum (Sigma Aldrich) under the conditions of 37° C., 5% CO2. After removal of the medium, 50 μl of assay buffer 1 (0.1% bovine serum albumin (Sigma Aldrich), 20 mM HEPES (Molecular Dimensions), […] probenecid (Sigma Aldrich), 1× Calcium 5 dye (Molecular Devices) in Hank's balanced salt solution (Invitrogen)) was added, and the cells were incubated for 60 min under the conditions of 37° C., 5% CO2. A test compound was dissolved in dimethyl sulfoxide (Sigma Aldrich) to 10 mM, and then diluted with assay buffer 2 (20 mM HEPES, Hank's balanced salt solution, 0.1% bovine serum albumin). For the reaction, a test compound solution (10 μl) was added using Fluorescent Imaging Plate Reader TETRA (FLIPR TETRA: manufactured by Molecular Devices), a fluorescence value (excitation wavelength 488 nm, measurement wavelength 570 nm) of each well was measured every one second for 2 min, and the agonist activity was determined using the area of the fluorescence value as an indicator of intracellular Ca^2+ concentration. The agonist activity of the test compound was calculated assuming that the fluorescence value of the well added with only the dilution buffer was 0% and the fluorescence value of the well added with 10 nM human orexin A (Tocris) buffer was 100%. As used herein, Emax indicates the value at 10 μM concentration when orexin A is converted to a full agonist (maximum value of agonist activity: 100%).

[3] abbreviates: amide bond, 13-membered ring, HATU/DIEA, 10.0 mM, 25.0 °C.

Where two headings read alike, the source gives them in different places.

With `O=C1CCCN2C(=O)CCOc3cccc(F)c3-c3cccc(c3)CC12` (stereo not drawn), the ring closure, isolated yield in data set [1] (from O=C(O)CCOc1cccc(F)c1-c1cccc(CC2NCCCC2=O)c1, amide bond, 12-membered ring, HATU/DIEA, 0.49 mM, 25.0 °C, 12.0 h) was 27.7%.
Take `O=C1CCCN2C(=O)CCOc3ccccc3-c3cc(ccc3F)CC12` (stereo not drawn): the ring closure, isolated yield in data set [1] (from O=C(O)CCOc1ccccc1-c1cc(CC2NCCCC2=O)ccc1F, amide bond, 12-membered ring, HATU/DIEA, 0.54 mM, 25.0 °C, 12.0 h) was found to be 28.4%.
`O=C1CCOc2cccc(F)c2-c2cccc(c2)C[C@H]2[C@@H](NS(=O)(=O)CF)CCCN12` [Compound A1-89, 1-fluoro-N-((4^2S,4^3S)-16-fluoro-5-oxo-8-oxa-4(2,1)-piperidina-1(1,2),2(1,3)-dibenzenacyclooctaphane-4^3-yl)methanesulfonamide]: the EC50 in data set [2] is 10 to 100 nM.
Regarding `O=C1CCOc2c(F)cccc2-c2cccc(c2)C[C@H]2[C@@H](NS(=O)(=O)CF)CCCN12` [Compound A1-90, 1-fluoro-N-((4^2S,4^3S)-13-fluoro-5-oxo-8-oxa-4(2,1)-piperidina-1(1,2),2(1,3)-dibenzenacyclooctaphane-4^3-yl)methanesulfonamide], the EC50 in data set [2] is 0.1 to 1 nM.
Same read-out and setting: the figure for `O=C1CCOc2ccc(F)cc2-c2cccc(c2)C[C@H]2[C@@H](NS(=O)(=O)CF)CCCN12` [Compound A1-91, 1-fluoro-N-((4^2S,4^3S)-15-fluoro-5-oxo-8-oxa-4(2,1)-piperidina-1(1,2),2(1,3)-dibenzenacyclooctaphane-4^3-yl)methanesulfonamide] is 1 to 10 nM; for `CN1CCOc2ccccc2-c2cccc(c2F)C[C@H]2[C@@H](NS(=O)(=O)CF)[C@@H](F)CN2C1=O` [Compound A1-92, N-((4^2S,4^3R,4^4S)-2^2,4^4-difluoro-6-methyl-5-oxo-9-oxa-6-aza-4(2,1)-pyrrolidina-1(1,2),2(1,3)-dibenzenacyclononaphane-4^3-yl)-1-fluoromethanesulfonamide] it is 1 to 10 nM.
For `CN1CCOc2ccccc2-c2cccc(c2)C[C@H]2[C@@H](NS(=O)(=O)C(F)F)C3(CC3)CN2C1=O` [Compound A1-95, 1,1-difluoro-N-((2′S,3′S)-6′-methyl-5′-oxospiro[cyclopropane-1,4′-9-oxa-6-aza-4(2,1)-pyrrolidina-1(1,2),2(1,3)-dibenzenacyclononaphan]-3′-yl)methanesulfonamide], in data set [2], the EC50 was 1 to 10 nM.
Still for that read-out and setting: the figure for `O=C1CCOc2ccccc2-c2cccc(c2F)C[C@H]2[C@@H](NS(=O)(=O)C(F)F)[C@@H](F)CN12` [Compound A1-96] is 10 to 100 nM; for `O=C1CCOc2ccccc2-c2cc(F)cc(c2F)C[C@H]2[C@@H](NS(=O)(=O)CF)CCCN12` [Compound A1-97] it is 10 to 100 nM.
On to `O=C1CCOc2ccccc2-c2cccc(c2F)C[C@H]2[C@@H](NS(=O)(=O)C(F)F)CCCN12` [Compound A1-98], for which, in data set [2], the EC50 is 0.1 to 1 nM.
For the compound `O=C1CCOc2ccccc2-c2cccc(c2)C[C@H]2[C@@H](NS(=O)(=O)CF)C3(CC3)CN12` [Compound A1-99], the EC50 in data set [2] is 10 to 100 nM.
For the compound `CCS(=O)(=O)N[C@H]1CCCN2C(=O)CCOc3ccccc3-c3cccc(c3F)C[C@@H]12` [Compound A1-100], the EC50 in data set [2] is 1 to 10 nM.
Consider `O=C1CCOc2ccccc2-c2cccc(c2F)C[C@H]2[C@@H](NS(=O)(=O)CF)CCCN12` [Compound A1-102], for which the EC50 in data set [2] is 10 to 100 nM.
“N-(5-oxo-4(2,1)-piperidina-1(1,2),2(1,3)-dibenzenacyclononaphane-4^3-yl)-methanesulfonamide_cis racemic” came in with a ring closure, isolated yield in data set [1] (amide bond, 13-membered ring, HATU/DIEA, 9.9 mM, 25.0 °C) of 27%.
Consider “N-(5-oxo-4(2,1)-piperidina-1(1,2),2(1,3)-dibenzenacycloundecaphane-4^3-yl)methanesulfonamide_cis racemic”, for which, in data set [1] (amide bond, 15-membered ring, HATU/DIEA, 8.9 mM, 25.0 °C), the ring closure, isolated yield was determined as 67%.
Compound “N-(5-oxo-6-aza-4(2,1)-piperidina-1(1,2),2(1.3)-dibenzenacyclo-undecaphane-4^3-yl)methanesulfonamide_cis racemic” came in with a ring closure, isolated yield in data set [1] (crosslinker bond, 15-membered ring, CDI/DIEA, 10.0 mM, 70.0 °C) of 23%.
Turning to “N-(5-oxo-9-oxa-4(2,1)-piperidina-1(1,2),2(1,3)-dibenzenacyclononaphane-4^3-yl)methanesulfonamide_cis racemic”, the ring closure, isolated yield in data set [1] (setting [3]) came out at 38%.
Same read-out and setting: the figure for “N-(5-oxo-9-oxa-4(2,1)-pyrrolidina-1(1.2),2(1,3)-dibenzenacyclo-nonaphane-4^3-yl)ethanesulfonamide_cis racemic” is 49%.
